Data as given in article PMC10610379, “Epidrugs as Promising Tools to Eliminate Plasmodium falciparum Artemisinin-Resistant and Quiescent Parasites” (Pharmaceutics, 2023).
“And” between values parts separate entries of the source, which are not always exact repeats. Identical values can stand only once. Like-named read-outs stand apart in the source and are kept apart here.

Tests used:
[1] = test system: ART-resistant parasites F32-ART at the quiescent stage; assay: Quiescent-stage Survival Assay (QSA), 48-h exposure; assay type: cell-based, Plasmodium falciparum; conditions: for Delay in parasite recrudescence time (difference between median recrudescence times), ART/ART + compound vs ART/ART: quiescence induced with ART 3 µM 6 h, then 48 h ART + compound at its IC90; for Delay in recrudescence time, DHA/DHA + compound vs DHA/DHA: quiescence induced with DHA 700 nM 6 h, then 48 h DHA + compound at its IC90
Protocol: The sensitivity of the ART-resistant parasites F32-ART at the quiescent stage towards the different molecules was determined using the QSA (Quiescent-stage Survival Assay), as previously described.
Epidrugs were tested at their IC90 values. In the present study, quiescence was induced using 3 µM of ART or 700 nM of DHA [28]. Thus, D-sorbitol synchronized ring-stage parasites at 3% parasitemia and 2% hematocrit (5 mL of culture per well in 6-well plates) were first exposed to 6 h of ART or DHA to induce quiescence and then to 48 h of the combination “ART or DHA + compound to be tested”. The combinations “ART 6 h/ART 48 h” or “DHA 6 h/DHA 48 h” were used as controls. The compounds were evaluated, in parallel, on proliferating parasites, i.e., without any pre-treatment. After drug exposure, parasite cultures were washed with 40 mL of RPMI-1640 medium and cultured in drug-free conditions supplemented with 10% human serum in new wells. The parasitemia for each condition was then microscopically monitored every 2 days. Culture media were renewed twice a week and 25 µL of fresh red blood cells were added once a week. Obtained data were used to perform Kaplan–Meier survival analyses considering censored data. The outcome was defined as the day when parasite cultures reached the initial parasitemia (3%) and data were considered as censored if no parasite recrudescence was observed during the 30-day experiment timeframe. When relevant, statistical significance between results obtained for the conditions “ART/ART” and “ART/ART + compound to be tested” or “DHA/DHA” and “DHA/DHA + compound to be tested” was determined by a Log Rank (Mantel Cox) test using GraphPad Prism version 7.05. For the best compounds targeting histones, in order to compare western blots data, modified QSAs were carried out by comparing “DHA 6 h/DHA 24 h” versus “DHA 6 h/DHA + compound to be tested 24 h”.

[2] = test system: Plasmodium falciparum F32-ART (artemisinin-resistant strain); assay: Standard chemosensitivity assay (SYBR Green I), F32-ART; assay type: cell-based; conditions: for IC50: Plasmodium falciparum, read-out: Antiplasmodial Activity: IC50, F32-ART; for Selectivity Index CC50/IC50: ratio cytotoxicity (mammalian cell type of the CC50)/antiplasmodial activity on F32-ART
Protocol: (§1) They differ by eight mutations in seven genes (PF3D7_0110400, PF3D7_1343700, PF3D7_0213400, PF3D7_1115700, PF3D7_1302100, PF3D7_1459600, PF3D7_1464500) among them the M476I mutation on the kelch13 gene. F32-ART and F32-TEM strains have RSA^0–3 h values up to 12% and less than 0.1%, respectively. […] Both strains were cultured, in the same conditions, according to the Trager and Jensen protocol with modifications. Briefly, parasites were cultivated in RPMI-1640 medium (Biowest) at 2% hematocrit in human red blood cells and 5% human serum (EFS, French Blood Bank) under 5% CO2 in a humid atmosphere at 37 °C.
(§2) The antimalarial activities of the compounds were evaluated on both strains. […] Antimalarial activities were determined with the SYBR Green I method. Each drug concentration was tested in triplicate. The parasites were incubated with the drugs for 48 h. Plates were read on a BioTek FLX800 Microplate Fluorescence Reader (Bio-Tek instruments, Winooski, VT, USA) (λexcitation = 485 nm, λemission = 528 nm). Control parasite culture (i.e., RPMI with 0.5% DMSO) was referred to as 100% growth. IC50 and IC90 values were determined using GraphPad Prism version 7.05 (GraphPad Software, San Diego, CA, USA). Results were the mean of 3 independent experiments. When it is relevant, statistical significance between results obtained with both parasite strains was determined by a Mann–Whitney test using GraphPad Prism version 7.05.

[3] = test system: Plasmodium falciparum F32-TEM (artemisinin-sensitive twin line); assay: Standard chemosensitivity assay (SYBR Green I), F32-TEM; assay type: cell-based; conditions: Plasmodium falciparum, read-out: Antiplasmodial Activity: IC50, F32-TEM
Protocol: as §1, §2

[4] = test system: ART-resistant parasites F32-ART at the quiescent stage; assay: Modified QSA, 24-h exposure; assay type: cell-based, Plasmodium falciparum; conditions: DHA 700 nM, compound at its IC90, 24-h exposure
Protocol: Epidrugs were tested at their IC90 values. In the present study, quiescence was induced using 3 µM of ART or 700 nM of DHA [28]. Thus, D-sorbitol synchronized ring-stage parasites at 3% parasitemia and 2% hematocrit (5 mL of culture per well in 6-well plates) were first exposed to 6 h of ART or DHA to induce quiescence and then to 48 h of the combination “ART or DHA + compound to be tested”. The combinations “ART 6 h/ART 48 h” or “DHA 6 h/DHA 48 h” were used as controls. The compounds were evaluated, in parallel, on proliferating parasites, i.e., without any pre-treatment. […] The parasitemia for each condition was then microscopically monitored every 2 days. […] When relevant, statistical significance between results obtained for the conditions “ART/ART” and “ART/ART + compound to be tested” or “DHA/DHA” and “DHA/DHA + compound to be tested” was determined by a Log Rank (Mantel Cox) test using GraphPad Prism version 7.05. […]
To collect enough material for immunoblotting, we performed the analysis after a 24-h exposure of DHA-treated parasites to the epidrug and in parallel evaluated the activity of the three epidrugs in a modified QSA, in which quiescent parasites were exposed to the drug to be tested for 24 instead of 48 h, as in our previous experiments (Figure 2).

Jurkat = conditions: read-out: Cytotoxicity: CC50 (Jurkat), data from literature ref 41; cited from earlier work
H4K8ac = assay: Immunoblotting, histone mark abundance in F32-ART parasites; assay type: cell-based, Plasmodium falciparum; conditions: 90nM
Protocol: (§3) Abundance of methylated and acetylated histone was determined in parasite cultures in different conditions: “not-treated”, “DHA 24 h”, “DHA 6 h/DHA 24 h” and “DHA 6 h/DHA + compound to be tested 24 h”. At the end of the treatments, parasite cultures were washed in RPMI-1640 and then twice in PBS 1× before red blood cell lysis with 0.075% saponin (Sigma-Aldrich) in PBS. Parasite ghosts were washed 3 times in PBS before incubating the ghosts with E1A lysis buffer (50 mM Hepes pH 7.5; 250 mM NaCl; 5 mM EDTA; 0.1% Triton X-100, 1 mM DTT, 0.2 mM PMSF supplemented with complete Mini EDTA-free protease inhibitor cocktail (Roche®, Basel, Switzerland)) for 15 min. Ghosts were then sonicated for 3 × 15s ON/OFF cycles to shear parasite membranes. Debris were pelleted by centrifuging for 15 min at 13,800× g and 4 °C, and supernatants (containing parasitic proteins) were then collected. Protein concentrations were determined using BCA assay (Bio-Rad, Hercules, CA, USA) according to the manufacturer’s instructions. For each sample, 10 µg of proteins were mixed with 4× sample buffer (10 mL 50% Glycerol, 5 mL 0.5 M Tris HCl pH 6.8, 4 mL 20% SDS, 0.02% Bromophenol blue for a total solution volume of 20 mL) and 100 mM DTT and then separated on 15% SDS-PAGE gels in Laemmli running buffer. Gels were then wet-transferred O/N at 20 V onto PVDF membranes. Membranes were blocked in TBST for 1 h at room temperature. Bottom parts were then probed with histone antibodies while upper parts were probed with PFALDOLASE antibody (Abcam, ab38905, Cambridge, UK) at 1:20,000 dilution. The following primary antibodies were used: anti-H3K4me1 (Abcam, ab8895); anti-H3K4me2 (Abcam, ab35356); anti-H3K9me2 (Abcam, ab1220); anti-H3K9me3 (Millipore, 07-442, Burlington, MA, USA); anti-tetra-acetyl H4 (Millipore, 06-866); anti-H4K8Ac (Millipore, 07-328); anti-H4K20me3 (Abcam, ab9053); anti-H3K4me3 (Diagenode) and anti-H3K9Ac (Millipore, 07-352) at 1:10,000. The following secondary antibodies were used: anti-rabbit IgG-Peroxidase produced in goat (Sigma-Aldrich) or anti-mouse IgG-Peroxidase (Sigma-Aldrich); at 1:20,000 dilutions. Blots were developed using ECL Prime Western Blotting (GE Healthcare, Chicago, IL, USA) and read on a Chemidoc touch imaging software. Densitometry analysis was performed by using ImageLab software from Bio-Rad. To determine if variations in histone abundances were statistically significant, immunoblotting experiments were performed on 3 biological replicates and each run was performed twice.

H4ac4 = assay: as above; assay type: cell-based, Plasmodium falciparum; conditions: 90nM
Protocol: as §3

NIH3T3 = test system: NIH3T3; design: method as in PMID 28644986; conditions: data from literature ref 50, read-out: Cytotoxicity: CC50 (NIH3T3); cited from earlier work
HL-60 = conditions: read-out: Cytotoxicity: CC50 (HL-60), data from literature ref 49; cited from earlier work
HeLa = conditions: cited from earlier work
human mesenchymal stem = test system: human mesenchymal stem; design: method as in PMID 30237855; conditions: data from literature ref 53, read-out: Cytotoxicity: CC50 (human mesenchymal stem); cited from earlier work
monocytes = test system: monocytes; design: method as in PMID 27091512; conditions: data from literature ref 47, read-out: Cytotoxicity: CC50 (monocytes); cited from earlier work
NOMO1 = conditions: read-out: Cytotoxicity: CC50 (NOMO1), data from literature ref 51; cited from earlier work
[5] = test system: P. falciparum strains F32-ART and F32-TEM; assay: Standard chemosensitivity assay, both strains; assay type: cell-based; conditions: Plasmodium falciparum, F32, read-out: Antiplasmodial activity IC50
Protocol: as §2

[6] = Cytotoxicity evaluation by MTT assay; assay type: cell-based; conditions: monkey, Vero cells, * mean of 2 experiments
Protocol: The cytotoxicity of all newly synthesized compounds was evaluated on the Vero cell lines (isolated from monkey kidney cells, gift from the Faculty of Pharmacy, Toulouse, France) by MTT assay according to Mosmann with slight modifications. Briefly, cells in MEM medium supplemented with 10% fetal calf serum, 2 mM L-glutamine, antibiotics (100 U/mL penicillin and 100 µg/mL streptomycin), and NEAA 1X, were seeded in 96-well plates. After a 24-h incubation at 37 °C and 5% CO2 in a humidified atmosphere, compounds were added with concentrations ranging from 5 nM to 50 μM in duplicate. […] The security index was calculated as the ratio of cytotoxicity/antiplasmodial activity.

H4IIErat = conditions: read-out: Cytotoxicity: CC50 (H4IIErat), data from literature ref 54; cited from earlier work
GM15850 = test system: GM15850; design: method as in PMID 18953021; conditions: data from literature ref 46, read-out: Cytotoxicity: CC50 (GM15850); cited from earlier work
[7] = F32-ART, 48 h incubation, SYBR Green I, mean ± SEM of 3 experiments (* mean of 2)
[8] = F32-TEM, 48 h incubation, SYBR Green I, mean ± SEM of 3 experiments (* mean of 2)
[9] = 24 h, F32-ART ring stage proliferating, 3 replicates (Fig 3A)
[10] = DHA 6 h/DHA + apicidin 24 h, F32-ART DHA-treated parasites, 3 replicates (Fig 3E)

Structure (SMILES)	IC50 [2, 7] [µM]	Selectivity Index CC50/IC50 [2]	IC50 [3, 8] [µM]	also measured
CCC(=O)CCCCC[C@@H]1NC(=O)[C@H]2CCCCN2C(=O)[C@H]([C@@H](C)CC)NC(=O)[C@H](Cc2cn(OC)c3ccccc23)NC1=O [Apicidin]	0.036 ± 0.009	280	0.036 ± 0.005	Delay in parasite recrudescence time (difference between median recrudescence times), ART/ART + compound vs ART/ART [1]: 8 days; Delay in recrudescence time, DHA/DHA + compound vs DHA/DHA [1]: slightly shorter delay; Recrudescence in modified QSA, DHA 6 h/DHA + compound 24 h vs DHA 6 h/DHA 24 h [4]: no difference in recrudence time; CC50 (Jurkat): 10 µM; Fold change of H4K8ac abundance, apicidin vs DMSO (H4K8ac; [9]): 0.98 and 1.16 and 0.96; Fold change of H4K8ac abundance, apicidin, quiescent stage (H4K8ac; [10]): increase and 1.81 and 2.83 and 2.40; Fold change of H4ac4 abundance, apicidin vs DMSO (H4ac4; [9]): increase and 1.70 and 1.40 and 1.39; Fold change of H4ac4 abundance, apicidin, quiescent stage (H4ac4; [10]): increase and 2.21 and 2.92 and 2.08
C#CCN(Cc1ccc2nc(N)[nH]c(=O)c2c1)c1ccc(C(=O)N[C@@H](CCC(=O)O)C(=O)O)cc1 [CB3717]	1	>20	1	CC50 (NIH3T3): > 20 µM
CN1C(=O)[C@@]23C[C@]4([C@]56C[C@@]78SS[C@@](CO)(C(=O)N7[C@H]5Nc5ccccc56)N(C)C8=O)c5ccccc5N[C@@H]4N2C(=O)[C@]1(CO)SS3 [Chaetocin]	0.64 ± 0.16	0.2	0.73 ± 0.09	CC50 (HL-60): 0.13 µM
NNc1nncc2ccccc12 [Hydralazine]	> 10	<4	> 10	CC50 (HeLa): 40 µM
Clc1ccc(N/N=C(\c2ccccc2)c2ccccn2)nc1 [JIB-04]	0.56 ± 0.08	>18	0.94 ± 0.03	CC50 (human mesenchymal stem): > 10 µM
Cn1cc(/C=C/C(=O)c2cccc(F)c2)cc1/C=C/C(=O)NO [MC 1568]	> 10	<1	> 10	CC50 (monocytes): 10 µM
CCCCCCCc1ccc(CCc2cccc(O)c2C(=O)O)cc1 [MG149]				CC50 (NOMO1): 51 µM; IC50 ([2]; F32, 48 h): > 10 µM; IC50 ([3]; F32, 48 h): > 10 µM
Cc1ncsc1-c1ccc(CNC(=O)[C@@H]2C[C@@H](O)CN2C(=O)[C@@H](NC(=O)COCCOCCOCCNC(=O)C[C@@H]2N=C(c3ccc(Cl)cc3)c3c(sc(C)c3C)-n3c(C)nnc32)C(C)(C)C)cc1 [MZ1]	1.7	>30	1.3	IC50 [5]: 1.3 to 1.7 µM; CC50 [6]: > 50 µM
Cc1cc(Nc2ccc(NC(=O)c3ccc(Nc4ccnc5ccccc45)cc3)cc2)nc(N)n1 [SGI-1027]	0.063 ± 0.013	>790	0.054 ± 0.022	Delay in parasite recrudescence time (difference between median recrudescence times), ART/ART + compound vs ART/ART [1]: 8 days; Delay in recrudescence time, DHA/DHA + compound vs DHA/DHA [1]: ≥ 6 days; CC50 (H4IIErat): > 50 µM
Cc1ccc(NC(=O)CCCCCC(=O)Cc2ccccc2N)cc1 [TC-H 106]	> 10	<0.6	> 10	CC50 (GM15850): 6.3 µM
